Reference: patent US12486255B2, “Modulators of RAS GTPase” (Tosk, Inc., priority 2018, dated 2025)
Where two headings read alike, the source gives them in different places.

Assays:
[1] = tested on: flies expressing G12V in their wing; assay: Fly assay, wing phenotype reversal; format: in vivo, Drosophila
Excerpt: Each wing from mutant flies receiving treatment with either water or compound received a score from two independent scorers according to the scheme outlined in the schematic. The analysis of the scores given to the compound group was compared to the scores given for the control (water) group.
Embryo preparation. GAL4 virgin ♀ were collected over a period of 3-5 days, then crossed with kRAS G12V (3M) ♂ inside a plastic condo supplied with grape agar containing yeast paste. Flies were acclimated for 2 days and embryos present after a span of 4-5 hours were collected along with the agar plate and incubated for 24 hours. The next day, embryos were washed off the agar plate with Embryo Wash solution (120 mM NaCl, 0.03% Triton X) and resuspended in Embryo Inoculation solution (120 mM NaCl, 420 mM Sucrose, 0.05% Triton X-100). Embryos were counted and diluted to 15 embryos/10 μL. 150 embryos (100 μL) were dispensed into each vial.
Food-drug admix preparation. Each fly vial contains 1.5 g of fly food in 4 ml water. The quantity of drug needed is calculated for a total of 4 vials, each vial containing 10 μM of Structure 2. This is equivalent to 0.014 mg of Structure 2/vial, for a total of 0.056 mg of Structure 2.
A stock solution of 0.1 mg/mL Structure 2 in ethanol is prepared. A 500-ml round bottom flask is charged with 6 g of fly food (1.5 g×4), to which is added 20 mL of ethanol, ensuring that the food is entirely covered in solvent. To this heterogeneous solution is added an appropriate amount of Structure 2 stock solution, containing the calculated required quantity, in this case 0.56 mL stock solution.
The ethanol is evaporated under reduced pressure via a rotary evaporator equipped with a bump trap. The resulting dry food is added to three vials, each containing 1.5 g, so that the experiment is performed in triplicate. The quantity is calculated initially for 4 vials, because some food will be stuck to the walls of the round bottom flask and some is also invariably lost in the bump trap during the solvent evaporation step. Control vials lacking Structure 2 or Structure 3 are also analyzed and undergo the exact same food preparation and solvent extraction procedure.
Embryo addition to vials. After all the food-drug admix is prepared and added to the respective vials, to each vial is added 4 mL of water and the vial briefly vortexed. To this liquid mixture is added the embryo solution (100 μL), the vials capped and placed in an incubator or fly room.
Wing mounting and scoring. Flies hatch 10-12 days after the above experimental setup is performed. The resulting adult flies are submerged in a 3:1 70% ethanol:glycerol solution for 24 hours, then wings are dissected with curved Vannas spring scissors (FST #15001-08). The wings are mounted in an 80% glycerol solution on a microscope slide under coverslip seal.
Pictures of the wings were taken using an Accu-Scope microscope equipped with a digital camera and connected to a laptop containing the Accu-Scope Micrometric SE Premium software. The wings were scored according to the following scoring tree:
Wing score analysis. After each wing received a score from two independent scorers, the analysis of the scores given to the Structure 2 and 3 groups was compared to the scores given for the control group and was performed using the IBM SPSS software.
Wings that received a score of 3 or above are considered “reversed”, since their phenotype is closer to WT than to kRAS G12V bearing Drosophila. The findings are plotted in FIG. 9. […]

[2] = Pharmacokinetic study in mice; format: in vivo; conditions: ip, 10 mg/kg, CD-1 mice, 10 mg/kg; for Vd/F: CD-1, mouse, read-out: Vz/F
Procedure: Pharmacokinetic studies were carried out using 10 weeks old CD-1 mice. Structure 2 and Structure 3 were injected ip, 3 mg/kg and 10 mg/kg, respectively, at 8 time points (0, 0.25, 0.5, 1, 2, 4, 8 and 24 hours post-dose). Blood was collected from 3 animals/time point and concentrations of Structure 2 in plasma determined using LC/MS.

[3] = Multi-day safety study in mice; format: in vivo; conditions: female CD1 mice, 10 mg/kg ip daily for 6 days
Procedure: The multi-day safety study used female, 10 week old, CD1 mice (4/treatment group) dosed with DMSO. Mice were administered 2 mg/kg of Structure 2 or 10 mg/kg Structure 3, ip, daily for 6 days and evaluated for changes clinical chemistry values, hematology values and animal weight as well as signs of health and grooming habits.
Heparinized blood samples were obtained by retro-orbital puncture on Day 6, 12 hours after the last dose of Structure 2. The plasma harvested from the blood was analyzed for standard clinical chemistry parameters (ALB. ALP, ALT, AMY, TBIL, BUN, CA, PHOS, CRE GLU, NA, K, TP & GLOB) and hematology (WBC, LYM, MON, GRA, RBC, HGB, HCT, MCV, MCH, MCHC, RDWc, PLT, PCT, MPV, PDWc) analytes (see definitions herein). Animal weight changes were also monitored. Values for all analytes were analyzed by one way ANOVA plus post-hoc Bonferroni using SPSS (IBM, Armonk, NY).

[4] = tested on: phosphorylated ERK 1/2 (T202/Y204); assay: Phosphorylated ERK bioassay (Western blot, SW480 cells); format: cell-based, human; conditions: 3 μM, 24 hours, in the presence of serum
Procedure: As described herein, the main downstream target for kRAS is ERK (Samatar et al., Targeting RAS-ERK signaling in cancer: promises and challenges. Nat Rev Drug Discov. 2014; 13:928-42). kRAS activates ERK leading to phosphorylated ERK. A compound that suppresses kRAS activity is expected to lower phosphorylated ERK.
Test articles abrogate the expression of phosphorylated ERK (T202/Y204) SW480 cells were subjected to test article incubation at 3 μM for 24 hours in the presence of serum to mimic natural growth environment. Cells were extracted and total protein of samples normalized through BCA assay. Processed extracts were subjected to SDS-PAGE/Western blot and blotted for phosphorylated ERK 1/2 (T202/Y204); ERK 1/2; and α-Tubulin.
The compound U0126 in FIG. 8 is a MEK inhibitor which is known to suppress phosphorylation of ERK. The compound was tested along with the test articles to serve as a positive control.

c1ccc(-n2cc(CN3CCN(c4ncnc5ccccc45)CC3)cn2)cc1 [Structure 3, 4-(4-((1-phenyl-1H-pyrazol-4-yl)methyl)piperazin-1-yl)quinazoline]
wing scores compared to the control group ([1]; Tukey HSD and LSD p<0.001, Mann Whitney p=0.002): significantly different from the control group
Reversal Phenotype (%) ([1]; wings with score of 3 or above, Structure 2 at 10 μmolar, control 8.27): 16%
Vd/F ([2]; plasma, plasma): 3.19 L/kg
Vd/F ([2]; plasma, plasma, text statement): > 3 L/kg
mean resident times (MRT) [2]: approximately one to two
AUCINF ([2]; plasma): 4.12 (Microgram * Hour)/mL
AUC_%Extrap ([2]; plasma): 4.92%
AUClast ([2]; plasma): 3.92 (Microgram * Hour)/mL
CI/F ([2]; plasma): 4.04 mL/min/kg
Concentrationmax ([2]; plasma): 3.38 Microgram/mL
Lambda_z ([2]; plasma): 0.76 h⁻¹
MRTINF ([2]; plasma): 1.25 h
MRTlast ([2]; plasma): 1.03 h
Timelast ([2]; plasma): 4.00 h
concentration at 4 Hour ([2]; mouse, plasma, read-out: Concentrationlast): 150 ng/mL
body weight or grooming habits versus dosing vehicle treated animals [3]: no statistically significant difference
clinical chemistry changes versus dosing vehicle treated animals [3]: no significant clinical chemistry changes
ALB ([3]; Day 6): 4.0 ± 0.10 g/dL
ALP ([3]; Day 6): 106.3 ± 21.40 U/L
ALT ([3]; Day 6): 77.3 ± 16.30 U/L
AMY ([3]; Day 6): 932.0 ± 98.90 U/L
BUN ([3]; Day 6): 22.0 ± 5.40 mg/dL
CRE ([3]; Day 6): <0.40 mg/dL
Ca^++ ([3]; Day 6): 9.7 ± 0.10 mg/dL
GLOB ([3]; Day 6): 1.2 ± 0.10 g/dL
GLU ([3]; Day 6): 309.0 ± 45.10 mg/dL
GRA ([3]; Day 6): 0.4 ± 0.20 10^9/l
GRA (%) ([3]; Day 6): 7.0 ± 3.00%
HCT ([3]; Day 6): 43.1 ± 1.80%
HGB ([3]; Day 6): 14.1 ± 0.50 g/dL
K^+ ([3]; Day 6): 4.6 ± 0.20 mmol/L
LYM ([3]; Day 6): 4.6 ± 1.40 10^9/l
LYM (%) ([3]; Day 6): 90.0 ± 4.30%
MCH ([3]; Day 6): 16.0 ± 0.70 pg
MCHC ([3]; Day 6): 32.7 ± 2.50 g/dL
MCV ([3]; Day 6): 49.3 ± 4.30 fL
MON ([3]; Day 6): 0.2 ± 0.20 10^9/l
MON (%) ([3]; Day 6): 3.1 ± 2.00%
MPV ([3]; Day 6): 6.7 ± 0.40 fL
NA^+ ([3]; Day 6): 147.8 ± 2.20 mmol/L
PCT ([3]; Day 6): 0.4 ± 0.10%
PDWc ([3]; Day 6): 30.0 ± 1.50%
PHOS ([3]; Day 6): 9.8 ± 0.40 mg/dL
PLT ([3]; Day 6): 578.8 ± 86.70 10^9/l
RBC ([3]; Day 6): 8.8 ± 0.50 10^12/l
RDWc ([3]; Day 6): 17.4 ± 0.70%
TBIL ([3]; Day 6): 0.4 ± 0.00 mg/dL
TP ([3]; Day 6): 5.2 ± 0.20 g/dL
WBC ([3]; Day 6): 5.2 ± 1.80 10^9/l
phosphorylated ERK (T202/Y204) [4]: dramatically decrease phosphorylated ERK
